From ChEMBL document CHEMBL4834412, “2,4,5-Trisubstituted Pyrimidines as Potent HIV-1 NNRTIs: Rational Design, Synthesis, Activity Evaluation, and Crystallographic Studies” (J Med Chem, 2021)

Columns and labels:
Format in all cases: functional, organism-based
[1] = system: Human immunodeficiency virus 1; assay: Antiviral activity against NNRTI-resistant HIV-1 RES056 harboring RT K103N/Y181C mutant infected in human MT4 cells assessed as protection against virus-induced cytopathogenicity after 5 days by MTT assay; conditions: Human immunodeficiency virus 1, RES056, MT4, 120 h
[2] = system: Human immunodeficiency virus 1; assay: Antiviral activity against HIV-1 harboring RT Y188L mutant infected in human MT4 cells assessed as protection against virus-induced cytopathogenicity after 5 days by MTT assay; conditions: Human immunodeficiency virus 1, MT4, 120 h
[3] = system: Human immunodeficiency virus 1; assay: Antiviral activity against HIV-1 strain IIIB infected in human MT4 cells assessed as protection against virus-induced cytopathicity after 5 days by MTT assay; conditions: Human immunodeficiency virus 1, IIIB, MT4, 120 h
[4] = system: Human immunodeficiency virus 1; assay: Antiviral activity against HIV-1 harboring RT L100I mutant infected in human MT4 cells assessed as protection against virus-induced cytopathogenicity after 5 days by MTT assay; conditions: Human immunodeficiency virus 1, MT4, 120 h
[5] = system: Human immunodeficiency virus 1; assay: Antiviral activity against HIV-1 harboring RT K103N mutant infected in human MT4 cells assessed as protection against virus-induced cytopathogenicity after 5 days by MTT assay; conditions: Human immunodeficiency virus 1, MT4, 120 h
[6] = system: Human immunodeficiency virus 1; assay: Antiviral activity against HIV-1 harboring RT Y181C mutant infected in human MT4 cells assessed as protection against virus-induced cytopathogenicity after 5 days by MTT assay; conditions: Human immunodeficiency virus 1, MT4, 120 h
[7] = system: Human immunodeficiency virus 1; assay: Antiviral activity against HIV-1 harboring RT E138K mutant infected in human MT4 cells assessed as protection against virus-induced cytopathogenicity after 5 days by MTT assay; conditions: Human immunodeficiency virus 1, MT4, 120 h
[8] = system: Human immunodeficiency virus 1; assay: Antiviral activity against HIV-1 harboring RT F227L/V106A mutant infected in human MT4 cells assessed as protection against virus-induced cytopathogenicity after 5 days by MTT assay; conditions: Human immunodeficiency virus 1, MT4, 120 h

| SMILES | EC50 [1] | EC50 [2] | EC50 [3] | EC50 [4] | EC50 [5] | EC50 [6] | EC50 [7] | EC50 [8] |
| --- | --- | --- | --- | --- | --- | --- | --- | --- |
| Cc1cc(C#N)cc(C)c1Oc1nc(NC2CCN(Cc3ccc(C(N)=O)cc3)CC2)ncc1-c1ccccc1 | 562 nM | 30.5 nM | 5.11 nM | 151 nM | 9.15 nM | 28.7 nM | 17.1 nM | 393 nM |
| Cc1cc(C#N)cc(C)c1Oc1nc(NC2CCN(Cc3ccc(S(C)(=O)=O)cc3)CC2)ncc1-c1ccncc1 | 244 nM | 18.5 nM | 5.93 nM | 17.4 nM | 4.4 nM | 10.8 nM | 9.19 nM | 79.4 nM |
| Cc1cc(/C=C/C#N)cc(C)c1Oc1nc(NC2CCN(Cc3ccc(S(C)(=O)=O)cc3)CC2)ncc1-c1ccc(N)nc1 | 26.2 nM | – | 5.29 nM | – | – | – | – | – |
| Cc1cc(/C=C/C#N)cc(C)c1Oc1nc(NC2CCN(Cc3ccc(S(C)(=O)=O)cc3)CC2)ncc1-c1ccncc1 | 26.3 nM | – | 5.74 nM | – | – | – | – | – |
| Cc1cc(C#N)cc(C)c1Oc1nc(NC2CCN(Cc3ccc(S(C)(=O)=O)cc3)CC2)ncc1-c1ccsc1 | 253 nM | 27.2 nM | 4.92 nM | 20.3 nM | 4.75 nM | 11.7 nM | 10.6 nM | 67.5 nM |
| Cc1cc(/C=C/C#N)cc(C)c1Oc1nc(NC2CCN(Cc3ccc(S(N)(=O)=O)cc3)CC2)ncc1-c1ccnc(Cl)c1 | 20.9 nM | – | 4.3 nM | – | – | – | – | – |
| Cc1cc(/C=C/C#N)cc(C)c1Oc1nc(NC2CCN(Cc3ccc(C(N)=O)cc3)CC2)ncc1-c1ccnc(Cl)c1 | 81.7 nM | – | 4.14 nM | – | – | – | – | – |
| Cc1cc(/C=C/C#N)cc(C)c1Oc1nc(NC2CCN(Cc3ccc(S(C)(=O)=O)cc3)CC2)ncc1-c1ccc(F)nc1 | 25.5 nM | – | 6.04 nM | – | – | – | – | – |
| Cc1cc(C#N)cc(C)c1Oc1nc(NC2CCN(Cc3ccc(S(N)(=O)=O)cc3)CC2)ncc1-c1ccccc1 | 427 nM | 33.2 nM | 5.14 nM | 53.2 nM | 7.74 nM | 26.2 nM | 24.5 nM | 219 nM |
| Cc1cc(/C=C/C#N)cc(C)c1Oc1nc(NC2CCN(Cc3ccc(S(C)(=O)=O)cc3)CC2)ncc1-c1ccnc(Cl)c1 | 33.3 nM | – | 4.23 nM | – | – | – | – | – |
| Cc1cc(C#N)cc(C)c1Oc1nc(NC2CCN(Cc3ccc(S(C)(=O)=O)cc3)CC2)ncc1-c1ccccc1 | 590 nM | 35.5 nM | 4.93 nM | 71.7 nM | 11.7 nM | 33.7 nM | 32.1 nM | 218 nM |
| Cc1cc(-c2cnc(NC3CCN(Cc4ccc(S(C)(=O)=O)cc4)CC3)nc2Oc2c(C)cc(/C=C/C#N)cc2C)ccn1 | 31.5 nM | – | 4.55 nM | – | – | – | – | – |
| Cc1cc(/C=C/C#N)cc(C)c1Oc1nc(NC2CCN(Cc3ccc(C(N)=O)cc3)CC2)ncc1-c1ccc(N)nc1 | 30.2 nM | 54.2 nM | 6.56 nM | 11.3 nM | 6.66 nM | 12 nM | 15.4 nM | 15.4 nM |
| Cc1cc(/C=C/C#N)cc(C)c1Oc1nc(NC2CCN(Cc3ccc(C(N)=O)cc3)CC2)ncc1-c1cccnc1 | 23.1 nM | 25.5 nM | 4.78 nM | 10.8 nM | 5.76 nM | 10.1 nM | 11.3 nM | 21.7 nM |
| COc1cc(-c2cnc(NC3CCN(Cc4ccc(C(N)=O)cc4)CC3)nc2Oc2c(C)cc(/C=C/C#N)cc2C)ccn1 | 40.3 nM | – | 7.28 nM | – | – | – | – | – |
| Cc1cc(/C=C/C#N)cc(C)c1Oc1nc(NC2CCN(Cc3ccc(S(N)(=O)=O)cc3)CC2)ncc1-c1cccnc1 | 25.8 nM | 25.1 nM | 5.04 nM | 7.85 nM | 6.25 nM | 9.95 nM | 11.9 nM | 12.2 nM |
| Cc1cc(-c2cnc(NC3CCN(Cc4ccc(S(N)(=O)=O)cc4)CC3)nc2Oc2c(C)cc(/C=C/C#N)cc2C)ccn1 | 23 nM | – | 4.16 nM | – | – | – | – | – |
| Cc1cc(/C=C/C#N)cc(C)c1Oc1nc(NC2CCN(Cc3ccc(S(C)(=O)=O)cc3)CC2)ncc1-c1ccnc(F)c1 | 25.1 nM | – | 4.75 nM | – | – | – | – | – |
| Cc1cc(C#N)cc(C)c1Oc1nc(NC2CCN(Cc3ccc(S(C)(=O)=O)cc3)CC2)ncc1-c1cccs1 | 134 nM | 15.4 nM | 4.01 nM | 8.93 nM | 5.71 nM | 11.6 nM | 6.27 nM | 38.4 nM |
| Cc1cc(C#N)cc(C)c1Oc1nc(NC2CCN(Cc3ccc(S(N)(=O)=O)cc3)CC2)ncc1-c1ccoc1 | 161 nM | 15.3 nM | 2.51 nM | 13.6 nM | 3 nM | 9.35 nM | 13 nM | 63.2 nM |

| SMILES | EC50 [1] | EC50 [2] | EC50 [3] | EC50 [4] | EC50 [5] | EC50 [6] | EC50 [7] | EC50 [8] |
| --- | --- | --- | --- | --- | --- | --- | --- | --- |
| Cc1cc(/C=C/C#N)cc(C)c1Oc1nc(NC2CCN(Cc3ccc(C(N)=O)cc3)CC2)ncc1-c1ccnc(Br)c1 | 32.2 nM | – | 7 nM | – | – | – | – | – |
| Cc1cc(C#N)cc(C)c1Oc1nc(NC2CCN(Cc3ccc(C(N)=O)cc3)CC2)ncc1-c1cccs1 | 115 nM | 17.9 nM | 3.34 nM | 14.7 nM | 5.15 nM | 10.2 nM | 8.85 nM | 75.4 nM |
| Cc1cc(/C=C/C#N)cc(C)c1Oc1nc(NC2CCN(Cc3ccc(S(N)(=O)=O)cc3)CC2)ncc1-c1ccnc(F)c1 | 38.8 nM | – | 6.37 nM | – | – | – | – | – |
| Cc1cc(C#N)cc(C)c1Oc1nc(NC2CCN(Cc3ccc(C(N)=O)cc3)CC2)ncc1-c1ccsc1 | 415 nM | 30 nM | 4.22 nM | 62.6 nM | 5.52 nM | 26.4 nM | 22 nM | 325 nM |
| Cc1cc(/C=C/C#N)cc(C)c1Oc1nc(NC2CCN(Cc3ccc(S(N)(=O)=O)cc3)CC2)ncc1-c1ccncc1 | 22.9 nM | 27.1 nM | 4.6 nM | 5.87 nM | 4.91 nM | 24.2 nM | 11.1 nM | 23.7 nM |
| Cc1cc(/C=C/C#N)cc(C)c1Oc1nc(NC2CCN(Cc3ccc(S(N)(=O)=O)cc3)CC2)ncc1-c1ccnc(Br)c1 | 26.9 nM | – | 4.42 nM | – | – | – | – | – |
| Cc1cc(/C=C/C#N)cc(C)c1Oc1nc(NC2CCN(Cc3ccc(S(N)(=O)=O)cc3)CC2)ncc1-c1ccc(F)nc1 | 28.2 nM | 36.7 nM | 5.8 nM | 11.4 nM | 7.5 nM | 15.4 nM | 49.1 nM | 23.1 nM |
| COc1cc(-c2cnc(NC3CCN(Cc4ccc(S(C)(=O)=O)cc4)CC3)nc2Oc2c(C)cc(/C=C/C#N)cc2C)ccn1 | 30 nM | – | 3.95 nM | – | – | – | – | – |
| Cc1cc(C#N)cc(C)c1Oc1nc(Nc2ccc(C#N)cc2)nc(N)c1Br [ETRAVIRINE] | – | 13.7 nM | – | – | – | 13.6 nM | 7.17 nM | – |
| Cc1cc(-c2cnc(NC3CCN(Cc4ccc(C(N)=O)cc4)CC3)nc2Oc2c(C)cc(/C=C/C#N)cc2C)ccn1 | 18.1 nM | – | 3.53 nM | – | – | – | – | – |
| Cc1cc(/C=C/C#N)cc(C)c1Oc1nc(NC2CCN(Cc3ccc(S(C)(=O)=O)cc3)CC2)ncc1-c1ccnc(Br)c1 | 33.2 nM | – | 4.52 nM | – | – | – | – | – |
| Cc1cc(/C=C/C#N)cc(C)c1Oc1nc(NC2CCN(Cc3ccc(C(N)=O)cc3)CC2)ncc1-c1ccnc(F)c1 | 53.4 nM | – | 8.26 nM | – | – | – | – | – |
| Cc1cc(/C=C/C#N)cc(C)c1Oc1nc(NC2CCN(Cc3ccc(C(N)=O)cc3)CC2)ncc1-c1ccc(F)nc1 | 20.4 nM | 30.1 nM | 4.56 nM | 5.76 nM | 5.97 nM | 10.3 nM | 11.7 nM | 27.5 nM |
| Cc1cc(C#N)cc(C)c1Oc1nc(NC2CCN(Cc3ccc(S(N)(=O)=O)cc3)CC2)ncc1-c1ccncc1 | 111 nM | 21.4 nM | 2.59 nM | 10.6 nM | 2.33 nM | 6.93 nM | 8.12 nM | 45.9 nM |
| Cc1cc(/C=C/C#N)cc(C)c1Oc1nc(NC2CCN(Cc3ccc(S(N)(=O)=O)cc3)CC2)ncc1-c1ccc(N)nc1 | 33.5 nM | – | 5.8 nM | – | – | – | – | – |
| Cc1cc(C#N)cc(C)c1Oc1nc(NC2CCN(Cc3ccc(S(C)(=O)=O)cc3)CC2)ncc1-c1ccoc1 | 172 nM | 24.2 nM | 4.75 nM | 14.8 nM | 4.39 nM | 14.4 nM | 15.3 nM | 41.5 nM |
| Cc1cc(/C=C/C#N)cc(C)c1Oc1nc(NC2CCN(Cc3ccc(S(C)(=O)=O)cc3)CC2)ncc1-c1cccnc1 | 22.4 nM | 22.7 nM | 4.57 nM | 10.7 nM | 5.42 nM | 10.3 nM | 12.2 nM | 13.2 nM |
| Cc1cc(/C=C/C#N)cc(C)c1Oc1nc(NC2CCN(Cc3ccc(C(N)=O)cc3)CC2)ncc1-c1ccncc1 | 23.3 nM | 23 nM | 4.19 nM | 5.62 nM | 3.84 nM | 7.14 nM | 8.66 nM | 35.5 nM |
| COc1cc(-c2cnc(NC3CCN(Cc4ccc(S(N)(=O)=O)cc4)CC3)nc2Oc2c(C)cc(/C=C/C#N)cc2C)ccn1 | 34.3 nM | – | 5.75 nM | – | – | – | – | – |
| Cc1cc(C#N)cc(C)c1Oc1nc(NC2CCN(Cc3ccc(C(N)=O)cc3)CC2)ncc1-c1ccco1 | 254 nM | 23.3 nM | 5.78 nM | 38.2 nM | 3.73 nM | 14.9 nM | 11.9 nM | 161 nM |
